Consider four compounds from publication PMC8399901, “Effects of a Peripherally Restricted Hybrid Inhibitor of CB1 Receptors and iNOS on Alcohol Drinking Behavior and Alcohol-Induced Endotoxemia” (Molecules, 2021).

For data set [1], the target named is T1, CB1R (Mus musculus, UniProt P47746).
T1 construct: from tissue; host or cells: living C57BL/6J mice (whole animal; brain and peripheral tissues)
The data set is described as follows: CP 55,940-induced hypothermia in mice. The format is in vivo. To be noted: CP55,940 0.1–3 mg/kg i.p. As for the experimental part:
(§1) Drugs were applied in a volume of 1 μL over the course of 2 min via 33 g internal injector (P1 Technologies, Roanoke, VA, USA) connected with the 2 µL precision glass Hamilton syringe (USA) by a PE-20 tubing (Fisher Scientific, Hampton, NH, USA). The infusion rate and volume were controlled through the use of the syringe pump (model PHD 22/2000, Harvard Apparatus, Cambridge, MA, USA). Following 2 min infusion, injectors were left in place for additional 3 min to allow a passive diffusion of drugs into the tissue.
(§2) Catalepsy was assessed using the bar test described with modifications. Mice were removed from home cages and their forepaws were placed on a horizontal stainless-steel rod, 0.5 cm in diameter, positioned 3.5 cm above the bench surface. […] The arbitrary cutoff time for cataleptic mice was 60 s. Hypothermia was then evaluated by measuring core body temperature with a rectal probe (Ellab Inc., Denver, CO, USA).
(§3) To determine a working range of CP 55,940 doses that induce catalepsy and hypothermia through CB1R, a dose–response curve for CP 55,940 was constructed first. Pharmacologically naïve Cnr1^−/− and wild-type littermates were injected with increasing doses of CP 55,940 (0.1, 0.3, 1, and 3 mg/kg; i.p.) at 30 min intervals. Hypothermia and catalepsy tests were performed every 30 min before ordering the next dose of CP 55,940.

Data set [2] concerns the target T1, CB1R. The data set is described as follows: CP 55,940-induced catalepsy (bar test) in mice. In kind it is in vivo. To be noted: CP55,940 0.1–3 mg/kg i.p. Here is the method: as §1, §2, §3
The target in data set [3] is T1, CB1R. Nature of the data set: Elevated plus maze test of anxiety-related behavior. In kind it is in vivo. To be noted: 1 µg i.c.v., tested 1 h later. As for the experimental part: as §1
Anxiety-related behavior was assessed using the elevated plus maze (EPM) test as described, with modifications. C57BL/6J mice were allowed to acclimate in their home cages for 2 h prior to the procedure. Animals received i.c.v infusion of JD5037 1 µg or vehicle and were tested in the EPM one hour later.
Mice were given 5 min to explore an elevated platform (72 cm above the floor) consisting of two opposing open and closed arms (each 30 × 5 cm) crossing each other. Illumination in the open and closed arms was 20 and 90 Lux, respectively. Mice were placed individually in the center of the platform (5 × 5 cm) facing an open arm. The behavior of each mouse was monitored by a computer-assisted video tracking system EthoVision XT (Noldus, Leesburg, VA, USA). The tested categories include total distance (cm) and average velocity (cm/s) of the run in the entire maze, cumulative duration (% of total time) spent in closed and open arms, number of entries into each closed and open arm of the maze (in-zone frequency). Arm entries were defined as crossing of the center point (located at approximately two thirds of the mouse body) into the arm. Number of entries, time spent in the open or closed arms, and distance travelled were measured by an automated HindSight software system (Hindsight, version 1.4, Hindsight Software Solutions Inc., Frisco, TX, USA).

In data set [4] the target is T1, CB1R. The data set is described as follows: Drinking-in-the-dark voluntary ethanol intake (20% ethanol, 4 h). The format is in vivo. To be noted: for alcohol drinking after oral gavage: wild-type/C57BL/6J mice, oral gavage day 4 (rimonabant 10 mg/kg; JD5037 3 mg/kg; S-MRI-1867 3, 10 mg/kg; R-MRI-1867 10 mg/kg). As for the experimental part:
as §1
The procedure was performed as described, with modifications. Mice were individually housed and acclimated to the room for 5–7 days before testing and randomly assigned to treatment groups. Starting 3 h into the dark cycle, water bottles were replaced with 20% ethanol in 25 × 100 mm glass tubes fitted with metal sippers, Access to the ethanol solution was limited to 4 h every day. […] Immediately after the drinking session, mice were deeply anesthetized with isoflurane. Blood was collected by traumatic avulsion of the orbital globe and kept for 10 min at room temperature in Eppendorf tubes followed by centrifugation at 3000× g for 10 min at 4 °C. Serum was collected and kept frozen in sealed vials at −80 °C until analysis.

The target in data set [5] is T1, CB1R. Also on record: method as in PMID 31105045. To be noted: cited from earlier work.
The target of data set [6] is T1, CB1R. The data set is described as follows: Two-bottle free-choice alcohol preference test (15% ethanol). The format is in vivo. To be noted: for alcohol preference and intake: daily oral gavage days 6–10 (S-MRI-1867 3, 10 mg/kg; R-MRI-1867 10 mg/kg), male C57BL/6J mice. As for the experimental part:
The procedure was performed as described, with modifications. Animals were individually housed and acclimated to the paradigm for 5–7 days by having access to two identical water bottles and handled daily to minimize the stress associated with drug testing. Animals were first subjected to a gradual increase in ethanol concentration in a drinking bottle (3%, 6%, 9%, 12%, 15%), while the other bottle contained water. The position of the bottles was changed every day, and alcohol and water bottles were replaced every 4 days. Once alcohol concentration reached 15%, animals remained on the paradigm for 10 days. Starting on day 2, mice received vehicle by oral gavage for 4 days, followed by a daily treatment with the global or peripheral CB1 antagonist (S-MRI-1867 1, 3, 10 mg/kg; R-MRI-1867 10 mg/kg,) or vehicle (control group) for another 5 days, one hour before the dark period. All animals were sacrificed for blood and tissue collection 12–16 h after treatment.

The target of the next data set is T2, iNOS (Mus musculus, UniProt P29477).
T2 construct: from tissue; host or cells: living C57BL/6J mice (whole animal)
The data set is described as follows: Serum endotoxin in portal vein after acute ethanol intoxication. The format is in vivo. To be noted: 10 mg/kg oral gavage 30 min before 6 g/kg ethanol intragastric. Here is the method:
The acute intoxication was performed on 8-week-old C57BL/6J mice as developed by, with modifications. […] The animals were fasted overnight. On the day of the experiment, they were transferred to the procedure room and allowed to acclimate to the new environment for 2 h while remaining in their home cages. Animals were divided into six treatment groups. Each mouse received S-MRI-1867 10 mg/kg or R-MRI-1867 10 mg/kg or vehicle by oral gavage, followed 6 g/kg ethanol (30% w/v) or saline by the same administration route 30 min later. Mice were anaesthetized by isoflurane 90 min later and sacrificed for blood withdrawal and tissue collection. To determine endotoxin levels, blood was drawn aseptically from the portal vein without anticoagulant and clotted for 30 min at room temperature. Samples were then centrifuged at 2000× g for 15 min at room temperature. Serum was pipetted off aseptically into new sterile vials and kept frozen at −80 °C until analysis. For the collection of tissue specimens, the entire alimentary tract was removed and cleaned from the mesentery from mice treated with S-MRI-1867 and saline. Stomach and ~5 cm segments of duodenum, jejunum, ileum, and colon were dissected out, flushed three times with 20 mL ice-cold PBS, and kept in −80 °C freezer till analysis.
Serum samples were thawed and diluted 1:5 with sterile water. […]

Data set [7] deals with CB1R. To be noted: cited from earlier work.
The mark [8] stands for this setting: CB1R-deficient (Cnr1−/−) mice, apart from the highest dose (3 mg/kg).
Setting [9] is: wild-type mice, cumulative at 30 min intervals.

T1 sequence (P47746 whole entry): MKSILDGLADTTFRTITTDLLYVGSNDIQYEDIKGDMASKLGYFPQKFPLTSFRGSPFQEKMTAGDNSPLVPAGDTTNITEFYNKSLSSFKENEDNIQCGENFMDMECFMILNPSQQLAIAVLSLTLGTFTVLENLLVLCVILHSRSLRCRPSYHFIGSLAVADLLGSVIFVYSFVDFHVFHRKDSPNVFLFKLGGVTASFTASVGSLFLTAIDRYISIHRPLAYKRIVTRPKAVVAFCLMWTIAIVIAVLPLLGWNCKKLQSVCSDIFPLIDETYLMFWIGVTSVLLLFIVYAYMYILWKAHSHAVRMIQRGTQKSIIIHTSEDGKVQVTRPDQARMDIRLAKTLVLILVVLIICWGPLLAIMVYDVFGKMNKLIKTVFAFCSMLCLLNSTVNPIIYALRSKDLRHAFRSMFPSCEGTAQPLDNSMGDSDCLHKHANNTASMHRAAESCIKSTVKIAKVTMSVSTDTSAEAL

As to `CCCCCCC(C)(C)c1ccc([C@@H]2C[C@H](O)CC[C@H]2CCCO)c(O)c1` [CP55,940], the “decrease in body temperature (hypothermia)” value was “completely insensitive to treatment” at CB1R [1] (setting [8]) and “dose-dependent decrease in body temperature” on CB1R [1] (setting [9]). Besides, the cataleptic behavior result at CB1R [2] (setting [8]) is on record as “completely insensitive to treatment”; on CB1R [2] (setting [9]), “cataleptic behavior”.

In the case of `CC(C)[C@H](N=C(NS(=O)(=O)c1ccc(Cl)cc1)N1C[C@H](c2ccccc2)C(c2ccc(Cl)cc2)=N1)C(N)=O` [JD5037], the “velocity in elevated plus maze” value on CB1R [3] (5 min run, n = 6, mean ± s.e.m., vehicle 4.0 ± 0.4) was 2.4 ± 0.4 cm/s. For the same compound, on CB1R [3] (5 min run, n = 6, mean ± s.e.m., vehicle 1189.0 ± 111.6), the “total distance traveled in elevated plus maze” value turned out to be 740.5 ± 130.6 cm. In addition, on CB1R [3] (vs vehicle), the “movement between the two closed arms (frequency)” value is on record as “moved less frequently between the two closed arms”; the “open arm entries and exploration” value is reported as “failure to enter open arms”; the “time spent in closed arms” value is recorded as “stayed much longer in the closed arms”. The “alcohol drinking after i.c.v. infusion” value on CB1R [4] (i.c.v. on day 4, one hour before dark period (rimonabant 2 µg; JD5037 1 µg)) is listed as “ineffective in reducing alcohol drinking”. Also, the “alcohol drinking after oral gavage” value at CB1R [4] is “effectively reduced alcohol drinking”. Besides, the “effect on alcohol drinking in CB1R-deficient mice” value on CB1R [5] is on record as “did not occur in CB1R-deficient mice”.

With `C/C(N)=N/C(=N\S(=O)(=O)c1ccc(C(F)(F)F)cc1)N1C[C@@H](c2ccccc2)C(c2ccc(Cl)cc2)=N1` [R-MRI-1867], the “alcohol drinking after oral gavage” value at CB1R [4] was “unaffected”. Further, the “alcohol preference and intake” value on CB1R [6] is “remained unaffected”. In addition, the “alcohol-induced increase in plasma levels of LPS (portal serum endotoxin)” value at iNOS is listed as “similarly inhibited”. The CB1R activity result with CB1R [7] is “CB1R inactive”.

For the compound `CC(N)=NC(=NS(=O)(=O)c1ccc(C(F)(F)F)cc1)N1C[C@H](c2ccccc2)C(c2ccc(Cl)cc2)=N1` [S-MRI-1867], the “alcohol drinking after oral gavage” value at CB1R [4] is reported as “inhibited alcohol consumption in a dose-dependent fashion”. For the same compound, the “alcohol preference and intake” value at CB1R [6] is “effective in reducing alcohol preference and intake”. The “total liquid consumption or food intake” value on CB1R [6] (daily oral gavage days 6–10, S-MRI-1867 3, 10 mg/kg) is recorded as “without affecting”. The “alcohol-induced increase in plasma levels of LPS (portal serum endotoxin)” value at iNOS is recorded as “similarly inhibited”. Further, the CB1R inhibitory potency result in the data set with CB1R [7] is recorded as “nanomolar”.
